One may read the IC50 as the concentration needed to halve the response being measured. Read a low IC50 as greater potency in that assay. For orientation: Ki means the equilibrium dissociation constant of an inhibitor or competing ligand from its target.

In ChEMBL document CHEMBL1152063, “4-Substituted proline derivatives that inhibit angiotensin converting enzyme and neutral endopeptidase 24.11” (Bioorg Med Chem Lett, 1994) one finds IC50 and Ki data, which are given here for nine molecules.

One assay deals with T1, Neprilysin (Rattus norvegicus, UniProt P07861).
T1 sequence (P07861 whole entry): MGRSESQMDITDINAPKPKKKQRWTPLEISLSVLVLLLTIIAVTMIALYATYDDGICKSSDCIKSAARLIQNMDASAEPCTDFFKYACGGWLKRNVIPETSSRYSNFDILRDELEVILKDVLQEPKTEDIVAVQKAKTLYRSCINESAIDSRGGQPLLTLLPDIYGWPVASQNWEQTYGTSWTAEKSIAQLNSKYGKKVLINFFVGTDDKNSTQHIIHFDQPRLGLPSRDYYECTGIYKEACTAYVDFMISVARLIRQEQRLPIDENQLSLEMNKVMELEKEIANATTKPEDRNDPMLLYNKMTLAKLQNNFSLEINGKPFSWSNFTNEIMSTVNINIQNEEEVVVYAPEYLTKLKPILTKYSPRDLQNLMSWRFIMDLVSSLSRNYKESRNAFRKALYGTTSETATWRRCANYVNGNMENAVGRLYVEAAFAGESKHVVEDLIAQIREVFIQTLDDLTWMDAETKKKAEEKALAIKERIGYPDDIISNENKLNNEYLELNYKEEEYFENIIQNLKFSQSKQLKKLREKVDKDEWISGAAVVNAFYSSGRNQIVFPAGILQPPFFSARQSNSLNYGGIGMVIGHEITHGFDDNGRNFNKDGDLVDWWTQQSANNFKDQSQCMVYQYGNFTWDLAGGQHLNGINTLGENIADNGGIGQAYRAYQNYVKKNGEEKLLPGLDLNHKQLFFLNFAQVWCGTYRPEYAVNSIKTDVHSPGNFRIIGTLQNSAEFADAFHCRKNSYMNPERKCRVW
Kind of assay: In vitro inhibition against neutral endopeptidase 24.11 (NEP) in rat kidney cortex membrane. In kind it is cell membranes.

In assay [1] the target is Angiotensin-converting enzyme (Homo sapiens, UniProt P12821). Kind of assay: In vitro inhibition against angiotensin converting enzyme (ACE).
Chain of Angiotensin-converting enzyme (P12821 whole entry): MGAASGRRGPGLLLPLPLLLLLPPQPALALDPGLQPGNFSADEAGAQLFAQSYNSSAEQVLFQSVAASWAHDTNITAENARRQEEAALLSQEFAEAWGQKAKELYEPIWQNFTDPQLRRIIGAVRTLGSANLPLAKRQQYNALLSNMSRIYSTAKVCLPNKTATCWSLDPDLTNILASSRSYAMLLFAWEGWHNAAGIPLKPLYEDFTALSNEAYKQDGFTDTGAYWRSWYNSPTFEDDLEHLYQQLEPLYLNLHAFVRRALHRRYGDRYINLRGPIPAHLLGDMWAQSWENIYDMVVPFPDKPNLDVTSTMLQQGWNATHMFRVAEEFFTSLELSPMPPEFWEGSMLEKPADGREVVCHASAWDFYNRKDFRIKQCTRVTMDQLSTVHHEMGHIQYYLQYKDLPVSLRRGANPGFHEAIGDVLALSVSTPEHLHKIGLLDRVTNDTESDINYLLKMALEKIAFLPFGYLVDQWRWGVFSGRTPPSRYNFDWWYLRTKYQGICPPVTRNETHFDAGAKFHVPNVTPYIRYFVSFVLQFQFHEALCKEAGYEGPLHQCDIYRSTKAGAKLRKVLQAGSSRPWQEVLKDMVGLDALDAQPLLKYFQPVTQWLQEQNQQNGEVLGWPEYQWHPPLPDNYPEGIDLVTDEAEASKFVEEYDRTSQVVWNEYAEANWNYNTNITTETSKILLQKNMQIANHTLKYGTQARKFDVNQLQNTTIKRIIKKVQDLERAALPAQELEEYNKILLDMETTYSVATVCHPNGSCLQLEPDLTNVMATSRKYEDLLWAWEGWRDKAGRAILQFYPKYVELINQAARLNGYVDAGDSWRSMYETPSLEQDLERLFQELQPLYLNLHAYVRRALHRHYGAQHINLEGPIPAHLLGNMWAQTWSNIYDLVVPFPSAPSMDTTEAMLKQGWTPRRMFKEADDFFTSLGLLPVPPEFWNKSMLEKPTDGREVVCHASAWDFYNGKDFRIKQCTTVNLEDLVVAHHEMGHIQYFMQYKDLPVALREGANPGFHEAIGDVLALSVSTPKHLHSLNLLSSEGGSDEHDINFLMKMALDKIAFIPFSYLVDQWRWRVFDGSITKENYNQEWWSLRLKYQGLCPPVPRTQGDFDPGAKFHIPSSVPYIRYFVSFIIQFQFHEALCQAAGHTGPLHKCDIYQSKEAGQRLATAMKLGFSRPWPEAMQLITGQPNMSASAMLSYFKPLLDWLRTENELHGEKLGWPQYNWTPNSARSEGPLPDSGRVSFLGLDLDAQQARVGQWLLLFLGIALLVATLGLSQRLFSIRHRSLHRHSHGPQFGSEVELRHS

In the case of `C[C@H](N[C@@H](CCc1ccccc1)C(=O)O)C(=O)N1C[C@@H](NC(=O)C(CS)Cc2ccccc2)C[C@H]1C(=O)O` (some centres not stated), the IC50 against Neprilysin turned out to be 149 nM; in assay [1] it was 42 nM.
With `C[C@H](CS)C(=O)N1C[C@@H](NC(=O)C(CS)Cc2ccccc2)C[C@H]1C(=O)O` (some centres not stated), the figures for the IC50 (at Neprilysin; in assay [1]) were 14 nM and 87 nM, respectively.
For `O=C(O)CCCCCCNC(=O)C(CS)Cc1ccccc1` (configuration not stated), the Ki on Neprilysin came out at 26 nM.
With `C[C@H](N[C@@H](CCc1ccccc1)C(=O)O)C(=O)N1C[C@@H](NC(=O)NC(CS)Cc2ccccc2)C[C@H]1C(=O)O` (some centres not stated), the figures for the IC50 (at Neprilysin; in assay [1]) were 1240 nM and 43 nM, respectively.
Take `C[C@H](CS)C(=O)N1C[C@@H](NC(=O)NC(CS)Cc2ccccc2)C[C@H]1C(=O)O` (some centres not stated): the IC50 against Neprilysin was found to be 118 nM; in assay [1], 147 nM.
With `C[C@H](N[C@@H](CCc1ccccc1)C(=O)O)C(=O)N1C[C@H](OC(=O)NC(CS)Cc2ccccc2)C[C@H]1C(=O)O` (some centres not stated), the results for the half-inhibitory concentration (IC50) (against Neprilysin; in assay [1]) were above 1000 nM and 506 nM, respectively.
On to `C[C@H](N[C@@H](CCc1ccccc1)C(=O)O)C(=O)N1C[C@H](NC(=O)C(CS)Cc2ccccc2)C[C@H]1C(=O)O` (some centres not stated), for which the results for the IC50 (on Neprilysin; in assay [1]) were above 1000 nM and 253 nM, respectively.
In the case of `C[C@H](CS)C(=O)N1C[C@@H](NC(=O)C(CS)Cc2ccc(-c3ccccc3)cc2)C[C@H]1C(=O)O` (some centres not stated), the IC50 at Neprilysin was 20 nM; in assay [1], 696 nM.
As to `C[C@H](CS)C(=O)N1C[C@H](NC(=O)C(CS)Cc2ccccc2)C[C@H]1C(=O)O` (some centres not stated), the half-maximal inhibitory concentration (IC50) came to 849 nM against Neprilysin and 18 nM in assay [1].
